From patent EP0060954A1, “Derivatives of fluorophenacyl amines and their therapeutic use” (LABORATOIRE L. LAFON Société anonyme dite:, priority 1981, dated 1982) come the findings set out here.

Structures are written as SMILES. “And” between values parts separate entries of the source, which are not always exact repeats. Identical values can stand only once. A value given as a limit tells only on which side of the number the result lay.

For data set [1], the system named is souris. Briefly: Interaction with apomorphine, mouse. The format is in vivo. On the procedure:
(§1) Le CRL 40827, en solution dans de l'eau distillée, a été administré par voie intrapéritonéale sous un volume de 20 ml/kg chez la souris mâle et un volume de 5 ml/kg chez le rat mâle. 1°) - Toxicité
Des lots de 6 souris reçoivent le CRL 40827 30 min avant l'injection sous-cutanée d'apomorphine à la dose de 1 ou 16 mg/kg.
(§2) En procédant selon les modalités opératoires données ci-dessus pour le CRL 40827, on observe ce qui suit.

The nature of data set [2]: CNS action of CRL 40727: hypothermia and amphetamine stereotypies (species not given). The conditions noted are these: in vivo.
For data set [3], the system named is souris. Briefly: Toxicity: maximal non-lethal dose DL-0, intraperitoneal. Format: in vivo. The conditions noted are these: mouse, i.p. How it is done: La dose maximale non mortelle, DL-0, est supérieure à 128 mg/kg et inférieure à 256 mg/kg, chez la souris, par voie I.P. 2°) - Action sur le SNC
as §1
La dose maximale non mortelle, DL-0, est supérieure à 64 mg/kg et inférieure à 128 mg/kg chez la souris mâle.
Le CRL 40854, en solution dans de l'eau distillée, a été administré par voie intrapéritonéale sous un volume de 20 ml/kg chez la souris màle et de 5 ml/kg chez le rat màle.
La dose maximale non mortelle DL-0 est supérieure à 128 mg/kg et inférieure à 256 mg/kg chez la souris.

The test system of data set [4] is chiens. Briefly: Cardiovascular action, intraduodenal route in dogs. Format: in vivo, chien. How it is done: Trois chiens reçoivent le CRL 40727 par voie intraduodénale aux doses successives de 1 mg/kg, 2,5 mg/kg, 5 mg/kg et 10 mg/kg. On mesure les mêmes paramètres que ci-dessus. On observe ce qui suit.
The subject of data set [5] is chiens. Put plainly: Cardiovascular action, intravenous perfusion in dogs. Format: in vivo, chien. The conditions noted are these: for minimal effective dose: Canis lupus familiaris, iv. On the procedure:
Deux chiens reçoivent le CRL 40727 par voie intraveineuse, en perfusion de 6 min, aux doses successives de 0,1 mg/kg, 1 mg/kg, 2,5 mg/kg, 5 mg/kg, 10 mg/kg et 20 mg/kg. On messure leur pression artérielle, leur fréquence cardiaque, leur débit fémoral, leur température rectale.

Data set [6] deals with souris. Put plainly: CNS action of CRL 40727: sedative-type effects in the mouse. The format is in vivo.
Another data set relates to homme. Put plainly: Clinical use as sedative and antidepressant agents. Format: in vivo. The conditions noted are these: for résultats en tant qu'agents antidépresseurs chez l'homme: tablets or capsules of 5 mg, 3 per day.
The test system of the next data set is rat. Put plainly: Interaction with apomorphine, rat. The format is in vivo. To be noted: i.p. 30 min before apomorphine 0,5 mg/kg s.c. How it is done:
as §1
Le CRL 40 827 est administré à des lots de 6 rats 30 min avant l'injection sous-cutanée de 0,5 mg/kg d'apomorphine.
as §2

Data set [7] has as its system souris. Briefly: Motility reduced by hypoxic aggression (acute hypobaric anoxia). Format: in vivo. The conditions noted are these: mouse. How it is done:
Une demi-heure après avoir reçu le CRL 40827, les souris (10 par dose, 20 témoins) sont soumises à une anoxie hypobare aiguë (dépression de 8 x 10^4 Pa en 90 s, détente de 45 s), puis elles sont placées en actimètre où leur motilité est enregistrée pendant 10 min.
as §2

Data set [8] deals with souris. Briefly: Asphyxic anoxia (gallamine triethiodide). Format: in vivo. To be noted: mouse. On the procedure: Des lots de 10 souris reçoivent le CRL 40827 30 min avant l'administration intrapéritonéale d: 34 mg/kg de triiodoéthy- late de gallamine. A la plus forte dose (34 mg/kg),le CRL 40827 empêche l'apparition des convulsions et de la mort chez 40% des animaux.
as §2

Data set [9] concerns souris. Put plainly: Four-plate test, traction and electroshock. Format: in vivo. To be noted: mouse, 30 min after dosing. On the procedure:
Le test est pratiqué sur des lots de 10 souris, 30 min après l'administration de CRL 40827.
as §2

Data set [10] deals with souris. Put plainly: Spontaneous motility (actimeter). The format is in vivo. To be noted: mouse; high dose 64 mg/kg. How it is done: Une demi-heure après avoir reçu le CRL 40827, les souris (6 par dose, 12 témoins) sont placées en actimètre où leur motilité est enregistrée pendant 30 min.
as §2

For data set [11], the system named is souris. Briefly: Motility reduced by habituation to the enclosure. Format: in vivo. The conditions noted are these: mouse. How it is done: Après 18 h de séjour dans les actimètres, les souris (6 par dose, 12 témoins) reçoivent le CRL 40827. Elles sont aussitôt replacées dans leurs enceintes respectives et, 30 min plus tard, on enregistre leur motilité pendant 30 min.
as §2

Data set [12] deals with souris. Put plainly: Interaction with oxotremorine. Format: in vivo. To be noted: mouse. On the procedure:
Le CRL 40827 est administré à des lots de 6 souris 30 min avant l'injection intrapéritonéale de 0,5 mg/kg d'oxotrémo- rine. On observe que, dès la dose de 0,5 mg/kg, le CRL 40827 antagonise l'action hypothermisante de l'oxotrémorine; cet effet est très net à 32 mg/kg.
as §2

The subject of a further data set is souris mâles. Put plainly: Intergroup aggressiveness test (number of fights after removal of the partition). To be noted: mouse; dose not given. Format: in vivo. The source says:
Des essais comparatifs ont été entrepris pour mettre en évidence quels sont les effets chez l'animal qui permettent de distinguer les produits selon l'invention de leurs homologues fluorés connus. Parmi ces essais, on a résumé ceux concernant les propriétés antiagressives. Plus précisément, on a évalué la diminution de l'agressivité intergroupes selon la technique suivante : a.près avoir séjourné pendant 3 semaines de part et d'autre d'une cloison opaque séparant leur cage par le milieu, des groupes de trois souris mâles de 20 g chacune environ reçoivent, par voie intrapéritonéale, les produits à tester en solution dans de l'eau distillée, les animaux témoins ne recevant que de l'eau distillée par voie intrapéritonéale. Une demi-heure plus tard, les deux groupes d'une même cage sont réunis par retrait de la cloison opaque et on note le nombre de combats qui surviennent en 10 min. On a utilisé trois cages pour chaque produit à tester et six cages pour le lot témoin ne recevant pas les produits à tester.
Les résultats du tableau I ci-après donnent la diminution de l'agressivité intergroupes par rapport au lot témoin, tous les produits à tester étant administrés à la dose de 8 mg/kg par voie intrapéritonéale. […]

Data set [13] has as its system souris. Briefly: Interaction with reserpine (hypothermia, ptosis). Format: in vivo. To be noted: mouse. How it is done: Quatre heures après l'injection intrapéritonéale de 2,5 mg/kg de réserpine, des lots de 6 souris reçoivent le CRL 40827.
as §2

The subject of a further data set is rats. Put plainly: Interaction with amphetamine (stereotypies). Format: in vivo, rat. To be noted: 8 and 32 mg/kg. How it is done: L'amphétamine (2 mg/kg) est injectée par voie intrapéritonéale à des lots de 6 rats, 30 min après l'administration de CRL 40827. […] Interaction avec la réserpine
as §2

With `CC(C)NCC(=O)c1ccc(F)cc1` [CRL 40727, chlorhydratede N-(4-fluorophénacyl)-isopropylamine], the “comportement de verticalisation et stéréotypies (apomorphine)” value with souris [1] is listed as “ne modifie pas”. The “action hypothermisante de la forte dose d'apomorphine” value with souris [1] (0,5, 2 and above all 8 and 32 mg/kg i.p., 30 min before apomorphine 16 mg/kg s.c.) is recorded as “s'oppose nettement”. Moreover, in data set [2], the “effets de type sédatif: température, effets hypothermisants de l'apomorphine, l'oxotrémorine et la réserpine” value is “hypothermie et potentialisation des effets hypothermisants de l'apomorphine, l'oxotrémorine et la réserpine”. In addition, the “stéréotypies amphétaminiques” value in data set [2] is listed as “antagonisme modéré”. Moreover, the “dose maximale non mortelle, DL-0” value in the data set with souris [3] is > 128 mg/kg and < 256 mg/kg. The minimal effective dose is 10 mg/kg with chiens [4] (Canis lupus familiaris, dog, intraduodenal, read-out: dose from which une action hypotensive appears); 1 mg/kg in the data set with chiens [5] (dog, i.v., successive doses 0,1 to 20 mg/kg, read-out: dose from which the débit fémoral increases); 10 mg/kg in the data set on chiens [5] (dog, i.v., read-out: dose from which the pression artérielle diastolique decreases); 5 mg/kg in the data set on chiens [5] (dog, i.v., read-out: dose from which the pression artérielle différentielle increases); 20 mg/kg with chiens [5] (dog, i.v., read-out: dose from which the pression artérielle moyenne decreases). Besides, the “action hypotensive et vasodilatatrice” value is given as “Le même résultat” in the data set with chiens [4] (another dog, 5 mg/kg I.V. at the end of the intraduodenal test) and “action hypotensive plus importante, sans effet vasodilatateur supplémentaire” in the data set with chiens [4] (one dog, supplementary dose of 20 mg/kg I.D.). The “hypotension à l'isoprénaline” value in the data set with chiens [4] (dog, intraduodenal) is on record as “n'est pas modifiée”; in the data set with chiens [5] (dog, i.v.), “n'est pas modifiée”. In addition, the “fréquence cardiaque (tachycardie à l'isoprénaline)” value was 165 battements/min in the data set with chiens [4] (dog, mean, after 10 mg/kg intraduodenal, control 220) and 182 battements/min with chiens [5] (dog, mean, after 10 mg/kg i.v., control 215). In addition, in the data set with chiens [5] (dog, i.v.), the fréquence cardiaque result was “n'est pas nettement modifiée”. Moreover, the “pression artérielle” value in the data set with chiens [5] (one dog, supplementary dose of 40 mg/kg I.V.) is on record as “hypotension plus importante qu'à la dose précédente”. Also, the “effets de type sédatif: motilité et agressivité” value in the data set with souris [6] is given as “hypomotilité et diminution de l'agressivité”. For the same molecule, in the data set on souris [6], the “effets de type sédatif: sédation, réactivité” value is recorded as “sédation et hyporéactivité”. Further, the “résultats cliniques dans le domaine psychotrope en tant qu'agents sédatifs et antidépresseurs” value with homme (clinic) was “bons résultats”. Moreover, the “résultats en tant qu'agents antidépresseurs chez l'homme” value with homme is given as “excellents résultats”.
With `COc1cc(OC)c(C(=O)CCCN2CCCC2)c(OC)c1` [LL 1656, chlorhydratede (2,4,6-triméthoxyphényl)-(3-pyrrolidino-propyl)-cétone, reference compound], in the data set with chiens [4] (6 mg/kg i.v., injected after CRL 40727), the vasodilatation entry is recorded as “n'entraîne pas de vasodilatation supplémentaire”. Also, the “débit fémoral” value in the data set on chiens [5] (one dog, 6 mg/kg I.V. after the CRL 40727 doses) was “n'augmente pas plus qu'avec la dose de 10 mg/kg de CRL 40727”.
For the molecule `CC(C)(C)NCC(O)c1ccccc1F` (stereo not shown) [CRL 40827A, fumaratede 1-(2-fluorophényl)-2-tertiobutylamino-1-éthanol], the “résultats en tant qu'agents antidépresseurs chez l'homme” value in the data set on homme is on record as “excellents résultats”.
In the case of `CC(C)(C)NCC(O)c1ccc(F)cc1` (stereo not shown) [CRL 40854, chlorhydratede 1-(4-fluorophényl)-2-tertiobutylamino-1-éthanol], the “stéréotypies induites par l'apomorphine” value in the data set on rat is given as “ne modifie pas”. For the same molecule, the “comportement de verticalisation et stéréotypies (apomorphine)” value in the data set on souris [1] was “sans modifier”. Moreover, the “action hypothermisante de l'apomorphine” value with souris [1] (16 and 64 mg/kg i.p.) is given as “s'oppose modérément”. Moreover, the “récupération motrice après anoxie hypobare” value in the data set on souris [7] is “n'entraîne pas d'amélioration”. Besides, the “apparition des convulsions et mort (anoxie par curarisation)” value with souris [8] is given as “ne modifie pas”. In the data set with souris [9], the “effets convulsivants de l'électrochoc” value is on record as “ne modifie pas les effets convulsivants”, the “incapacité motrice (traction)” value was “ne provoque pas de déficit moteur majeur” and the “nombre de passages punis (test des quatre plaques)” value was “n'entraîne pas d'augmen- tion”. In addition, in the data set on souris [10], the “motilité spontanée” value was “diminue modérément”. In addition, the “activité motrice (souris habituée à son enceinte)” value with souris [11] was “ne provoque pas de reprise nette”. Besides, the “dose maximale non mortelle, DL-0” value with souris [3] is > 128 mg/kg and < 256 mg/kg. In addition, in the data set on souris [12], the “signes de stimulation cholinergique périphérique (oxotrémorine)” value is recorded as “ne modifie pas” and the “tremblements provoqués par l'oxotrémorine” value is “ne modifie pas”. Moreover, in the data set with souris [12] (doses printed 'le et 64 mg/kg'), the “effet hypothermisant de l'oxotrémorine” value was “aggrave”. For the same molecule, the “agressivité intergroupes / effet antiagressif” value in the data set on souris mâles is on record as “diminue l'agressivité intergroupes”. Besides, the “ptôsis réserpinique” value in the data set on souris [13] is listed as “gans modifier”. Besides, the “hypothermie réserpinique” value in the data set on souris [13] (4, 16 and 64 mg/kg) is reported as “antagonise modérément”. Further, in the data set on rats, the “durée des stéréotypies amphétaminiques” value is listed as “potentialise”.
